From patent US8372832B2 (priority 2006, dated 2013)

Biological target: α7-subtype of nicotinic receptors (Rattus norvegicus, UniProt Q05941)
Test: biochemical
Type: binding

α7-subtype of nicotinic receptors, sequence (Q05941 23-502): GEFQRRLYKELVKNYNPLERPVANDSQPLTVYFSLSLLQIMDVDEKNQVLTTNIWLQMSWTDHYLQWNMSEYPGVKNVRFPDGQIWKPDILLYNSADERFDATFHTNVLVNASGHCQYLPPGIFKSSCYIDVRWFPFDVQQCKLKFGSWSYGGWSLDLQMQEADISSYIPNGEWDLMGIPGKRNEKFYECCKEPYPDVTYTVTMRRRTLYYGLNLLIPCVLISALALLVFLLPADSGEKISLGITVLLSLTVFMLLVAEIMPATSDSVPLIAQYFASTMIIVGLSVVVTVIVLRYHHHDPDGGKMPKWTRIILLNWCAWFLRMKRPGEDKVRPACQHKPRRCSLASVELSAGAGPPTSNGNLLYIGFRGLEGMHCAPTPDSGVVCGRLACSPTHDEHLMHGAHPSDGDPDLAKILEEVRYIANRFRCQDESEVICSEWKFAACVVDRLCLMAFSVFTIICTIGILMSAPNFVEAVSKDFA

Brc1ccc(-c2nnc(N3CCN4CCC3CC4)o2)o1 [Compound A1, 4-[5-(5-Bromo-furan-2-yl)-[1,3,4]oxadiazol-2-yl]-1,4-diaza-bicyclo[3.2.2]nonane] was tested, and the IC50 was under 0.01 µM.
